These results are taken from paper PMC5668434, “Modulation of telomere protection by the PI3K/AKT pathway” (Nature Communications, 2017).

Read-outs that look alike come from different tables or passages of the source.

One may read the IC50 as the concentration at which inhibition is half-maximal. A word on the inhibition: it is how much of the control response was suppressed.

The test system of assay [1] is CHA 9-3 cells. Description: Multitelomeric signals (MTS) by Q-FISH on metaphase spreads. The conditions noted are these: 10 μM, 24 h. Type of assay: cell-based, mouse. The text has this: Trf1 abrogation is known to lead to a persistent DDR at telomeres, and to induction of telomere-induced chromosomal aberrations[28]–[30]. Trf1 genetic deletion induces the so-called multitelomeric signals (MTS), a chromosomal aberration related to increased telomere fragility during DNA replication, [29]. […] To this end, we treated CHA 9-3 cells with either DMSO, the AKT inhibitor MK-2206 (AKTi) and the PI3K inhibitors ETP-47037 or ETP-47228. For detection of MTS, we performed quantitative fluorescence in situ hybridization (Q-FISH) analysis on metaphase spreads using a telomeric probe to visualize telomeres (“Methods” section). MTS are visualized by presenting a multi-dot pattern at chromosome ends in contrast to normal telomeres that show a single dot at each chromosome end.
Lung cancer-derived cell line (CHA-9-3) and immortalized P110α ^lox/lox MEFS were treated either with 10 µM of ETP-47037, ETP-47228, or AKTi (MK-2206) for 24 h. Q-FISH in metaphase spreads was performed as described above, but increasing the concentration of formamide in both the incubation and the washes to 70%.

For assay [2], the system named is IPSCs. Also noted: method as in PMID 25971796. The conditions noted are these: cited from earlier work.
For assay [3], the system named is PRAS40 (T246) and pS6 (S235/236) in CHA 9-3 cells. Description: Western blot of PI3K downstream targets PRAS40 (T246) and pS6 (S235/236). The class given is cell-based, mouse. The conditions noted are these: 10 μM. As for the experimental part: We also determined the effect of ETP-47037 and ETP-47228 in the inhibition of other PI3K downstream targets, PRAS40 (T246), and pS6 (S235/236)[64], [65] (Supplementary Fig. 1).
(§1) For detection of AKT, PRAS40 (T246) and pS6 in CHA9.3 cells, untreated control (DMSO) or treated with the indicated inhibitors, were lysed in RIPA buffer supplemented with 100 mM pefablock (Roche Diagnostics) and protease inhibitor cocktail (Roche Molecular Biochemicals). Proteins were resolved on 10% SDS-PAGE, and transferred to nitrocellulose membrane (Amersham^TM Protan^TM 0.2 µm nNC). Membranes were incubated with antibodies against phospho-AKT (Ser473), AKT, phospo-S6 (Ser 235/236), and S6Ribosomal from Cell Signaling, phospo-PRAS40 (Thr246) from BIOSURCE and anti α-tubulin form Sigma, overnight at 4 °C. After washing, blots were incubated with secondary antibody: Alexa Fluor 680 goat anti-rabbit IgG (Invitrogen) or anti-mouse IgG DyLight 800 conjugated (Thermo Scientific), and visualized using an Odyssey infrared imaging system (Li-Cor Biosciences).
Supplementary Figure 1. Modulation of PI3K/AKT downstream targets by ETP-47037 and ETP-47228. Representative Western blot images of PRAS40 phosphorylation at T246 and of P6 at S235/236 in CHIA 9-3 lung cancer cell line treated for 24 hours with 10 µM of ETP-47037 or with 10 µM of ETP-47228 at different time points of the treatment. […]
(In general: A western blot detects proteins with antibodies after separation by electrophoresis.)

In assay [4] the target is T1, PI3K (p110α) (Homo sapiens, UniProt P42336).
T1 construct: purchased Cama Biosciences (sic; Carna Biosciences) #07CBS-0402A
T1 sequence (P42336 whole entry): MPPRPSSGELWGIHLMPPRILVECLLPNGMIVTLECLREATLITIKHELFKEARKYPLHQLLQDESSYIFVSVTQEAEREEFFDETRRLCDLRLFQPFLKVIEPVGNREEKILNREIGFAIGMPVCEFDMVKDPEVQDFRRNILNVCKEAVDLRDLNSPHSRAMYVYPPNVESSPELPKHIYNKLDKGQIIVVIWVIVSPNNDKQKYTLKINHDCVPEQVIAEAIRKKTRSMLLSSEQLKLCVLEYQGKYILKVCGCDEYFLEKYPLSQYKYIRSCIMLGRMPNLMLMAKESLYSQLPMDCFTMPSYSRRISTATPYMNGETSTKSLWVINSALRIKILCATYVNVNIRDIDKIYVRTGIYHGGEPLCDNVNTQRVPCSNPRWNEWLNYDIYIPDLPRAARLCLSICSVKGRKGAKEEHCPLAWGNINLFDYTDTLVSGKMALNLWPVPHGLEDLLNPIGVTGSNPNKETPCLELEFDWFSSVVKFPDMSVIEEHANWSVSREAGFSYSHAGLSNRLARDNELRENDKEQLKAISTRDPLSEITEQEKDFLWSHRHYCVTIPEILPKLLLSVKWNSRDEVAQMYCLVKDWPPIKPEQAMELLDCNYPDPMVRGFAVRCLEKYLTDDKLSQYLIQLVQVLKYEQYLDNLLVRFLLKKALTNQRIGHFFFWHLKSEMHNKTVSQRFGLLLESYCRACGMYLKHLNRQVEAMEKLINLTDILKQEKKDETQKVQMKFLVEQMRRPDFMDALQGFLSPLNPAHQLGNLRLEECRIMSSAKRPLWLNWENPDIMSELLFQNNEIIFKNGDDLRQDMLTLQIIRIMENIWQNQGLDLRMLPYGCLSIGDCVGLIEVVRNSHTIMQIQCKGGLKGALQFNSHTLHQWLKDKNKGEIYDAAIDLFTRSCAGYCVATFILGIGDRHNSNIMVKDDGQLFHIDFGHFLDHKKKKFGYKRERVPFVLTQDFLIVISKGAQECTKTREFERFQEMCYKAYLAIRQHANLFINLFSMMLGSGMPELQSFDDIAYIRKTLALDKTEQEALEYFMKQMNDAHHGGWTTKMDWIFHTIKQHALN
T1 sequence (P27986 whole entry partner): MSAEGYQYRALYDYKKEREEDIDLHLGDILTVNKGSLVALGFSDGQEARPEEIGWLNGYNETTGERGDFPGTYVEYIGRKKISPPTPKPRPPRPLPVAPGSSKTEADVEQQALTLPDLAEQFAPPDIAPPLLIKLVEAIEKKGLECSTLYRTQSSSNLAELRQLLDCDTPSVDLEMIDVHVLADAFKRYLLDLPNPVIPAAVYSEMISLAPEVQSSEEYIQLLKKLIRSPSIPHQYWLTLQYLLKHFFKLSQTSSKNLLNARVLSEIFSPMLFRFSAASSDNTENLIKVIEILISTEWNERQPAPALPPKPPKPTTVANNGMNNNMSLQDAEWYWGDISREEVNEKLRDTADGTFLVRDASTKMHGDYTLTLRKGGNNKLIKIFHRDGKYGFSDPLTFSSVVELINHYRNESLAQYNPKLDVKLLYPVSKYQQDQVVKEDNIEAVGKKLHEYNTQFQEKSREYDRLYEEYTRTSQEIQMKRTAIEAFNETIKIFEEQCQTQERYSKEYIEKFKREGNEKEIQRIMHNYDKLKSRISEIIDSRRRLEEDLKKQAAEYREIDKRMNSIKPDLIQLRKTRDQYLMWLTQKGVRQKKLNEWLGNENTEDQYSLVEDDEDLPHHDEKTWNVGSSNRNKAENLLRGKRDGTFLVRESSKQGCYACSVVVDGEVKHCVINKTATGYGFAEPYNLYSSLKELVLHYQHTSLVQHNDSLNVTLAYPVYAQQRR
Put plainly: PI3K alpha biochemical assay (ADP Hunter Plus). The conditions noted are these: internal data; read-out: PI3Kα IC50.

In assay [5] the target is T2, PI3K-δ (p110δ/p85α) (Homo sapiens, UniProt O00329).
T2 construct: purchased Invitrogen PV 5274
T2 sequence (O00329 whole entry): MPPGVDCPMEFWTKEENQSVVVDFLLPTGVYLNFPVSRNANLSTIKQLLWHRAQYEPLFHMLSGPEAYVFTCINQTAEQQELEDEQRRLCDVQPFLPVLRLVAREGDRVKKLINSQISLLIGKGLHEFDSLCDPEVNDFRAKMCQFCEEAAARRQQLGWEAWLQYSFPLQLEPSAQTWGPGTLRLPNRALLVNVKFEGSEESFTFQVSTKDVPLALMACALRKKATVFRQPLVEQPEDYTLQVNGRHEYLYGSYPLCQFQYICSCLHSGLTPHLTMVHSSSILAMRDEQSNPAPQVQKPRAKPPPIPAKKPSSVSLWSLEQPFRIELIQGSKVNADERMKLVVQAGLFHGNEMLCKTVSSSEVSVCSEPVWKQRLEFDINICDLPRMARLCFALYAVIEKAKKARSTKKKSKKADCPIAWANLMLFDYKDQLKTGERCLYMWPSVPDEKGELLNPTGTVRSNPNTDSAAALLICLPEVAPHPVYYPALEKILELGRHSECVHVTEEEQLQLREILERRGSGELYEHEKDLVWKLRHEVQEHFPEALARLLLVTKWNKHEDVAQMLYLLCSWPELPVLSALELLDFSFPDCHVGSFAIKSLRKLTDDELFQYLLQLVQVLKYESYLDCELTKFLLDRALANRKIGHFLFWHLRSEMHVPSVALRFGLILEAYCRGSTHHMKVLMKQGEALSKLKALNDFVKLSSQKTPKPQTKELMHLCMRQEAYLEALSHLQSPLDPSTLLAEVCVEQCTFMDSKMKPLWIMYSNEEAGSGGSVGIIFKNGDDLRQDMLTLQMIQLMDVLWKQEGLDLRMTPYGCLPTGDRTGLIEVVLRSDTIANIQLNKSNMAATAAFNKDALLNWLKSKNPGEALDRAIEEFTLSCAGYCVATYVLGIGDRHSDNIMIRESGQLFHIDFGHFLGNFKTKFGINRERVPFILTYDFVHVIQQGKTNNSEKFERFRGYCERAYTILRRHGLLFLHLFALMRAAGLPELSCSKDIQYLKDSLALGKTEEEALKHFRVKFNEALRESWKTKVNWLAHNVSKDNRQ
T2 sequence (P27986 whole entry partner): as the sequence (P27986 whole entry partner) above
Description: PI3K isoforms biochemical assay (HTRF), PI3K-δ. The conditions noted are these: read-out: PI3Kδ IC50. As for the experimental part:
PI3Kα (p110α/p85α), PI3K-δ (p110δ/p85α), and PI3K-γ (p110γ) were purchased from Invitrogen (PV4789, PV 5274, and PV4787, respectively). PI3K-β (p110β/p85α) was obtained from Millipore (#14-603). The kinase activity was measured with the commercial PI3-kinase (human) HTRF™ assay available from Millipore (#33-017), following the manufacturer recommendations. The final enzyme concentration in the assay were 100 pM for PI3K-α and PI3K-δ, 500 pM for PI3K-β, and 4 nM for PI3K-γ. […] The enzyme was preincubated with the inhibitor and with 10 μM of PIP2 for 5 min. The enzymatic reaction was started by addition of ATP at 50 times the Km. The incubation was kept at 37 °C for 60 min. Stop solution and detection mix were added sequentially to the wells and plates were incubated 3 h in the dark at 25 °C. HTRF counts were measured in an EnVision reader (Perkin Elmer) using the recommended settings. Values were normalized against the control activity included for the enzyme (100% PI3 kinase activity, without compound). These values were plotted against the inhibitor concentration and were fit to a sigmoid dose-response curve by using Activity base software from IDBS.

Assay [6] deals with panel of 24 kinases representing the human kinome. Description: ProQinase 24 kinase selectivity panel (whole panel). The class given is biochemical. To be noted: 1 µM. The procedure: The kinase selectivity of the inhibitors used here was ensured in order to discard potential off-targets effects contributing to the observed TRF1 modulation.
Supplementary Table 1: Kinase selectivity profile of ETP-47037 and ETP-47228 at 1 µM. Selectivity against protein kinases was determined from evaluation of compounds at 1µM in ProQinase’s 24 selected panel that represents the ACG, STE, TKL, TK, CMGC CAMK and CK1 kinase families.

The test system of assay [7] is p-AKT S473 in CHA-9.3 mouse lung cancer cell line. Description: Western blot of AKT phosphorylation at Ser473 in CHA-9.3 cells. The class given is cell-based. To be noted: for p-AKT S473 inhibition (in words): 10 μM time course; for inhibition at 10 µM: Mus musculus. As for the experimental part: These new chemical probes were prepared by replacement of a single key oxygen atom from the morpholine moiety by a methylene group, generating the piperidine derivatives ETP-51259 and ETP-50952 (Fig. 1a). To assess their PI3K cellular activity, we measured phosphorylation of residue Ser473 in AKT (p-AKT S473), a PI3K downstream target[61]–[63], by western blot analysis. To this end, we used the CHA-9.3 mouse lung cancer cell line previously generated by us[39]. […] Of note, the inhibitory activity of ETP-47037 was more prolonged than that of ETP-47228. Thus, ETP-47037 mediated p-AKT S473 inhibition was maintained during the 24-hour treatment while the ETP-47228 mediated inhibition decreased 35% after 24 h as compared to 1-h treatment but still was able to inhibit the pathway above 50% (Fig. 1c).
as §1

The mark [8] stands for this setting: 1 h, 1 h, read-out: Inhibition pAKT (Ser 473) with regard to DMSO.
The mark [9] stands for this setting: 4 h, 4 h, read-out: Inhibition pAKT (Ser 473) with regard to DMSO.
Where [10] appears, read: 8 h, 8 h, read-out: Inhibition pAKT (Ser 473) with regard to DMSO.
[11] abbreviates: 16 h, 16 h, read-out: Inhibition pAKT (Ser 473) with regard to DMSO.
Where [12] appears, read: 24 h, 24 h, read-out: Inhibition pAKT (Ser 473) with regard to DMSO.

On to `CS(=O)(=O)N1CCN(Cc2cc3c(N4CCOCC4)nc(-c4cnc(N)nc4)cn3n2)CC1` [ETP-47037], for which the “Frequency of MTS events per metaphase compared to DMSO” value in assay [1] was “significantly increased”. For the same compound, the “Formation of MTS in IPSCs” value in assay [2] is “induce formation of MTS”. Besides, in assay [3], the “Inhibition of PI3K downstream targets PRAS40 (T246) and pS6 (S235/236) (in words)” value is on record as “bona fide inhibitors of the PI3K/AKT axis”. The IC50 in assay [4] was 0.99 nM; in assay [5], 7.13 nM. The “Inhibition of any kinase of the 24 kinase panel (in words)” value in assay [6] is “negligible inhibition of any kinase tested”. Moreover, in assay [7], the “p-AKT S473 inhibition (in words)” value is “strongly inhibited”. In addition, the inhibition at 10 µM in assay [7] (setting [8]) was determined as 92%; in assay [7] (setting [9]) it was 97%; in assay [7] (setting [10]) it was 96%; in assay [7] (setting [11]), 97%; in assay [7] (setting [12]) it was 94%.

As to `Cc1cnc2c(N3CCOCC3)nc(-c3ccc(NC(=O)Nc4ccc(C(=O)N5CCN(C)CC5)cc4)cc3)cn12` [ETP-47228], in assay [1], the “Frequency of MTS events per metaphase compared to DMSO” value is on record as “significantly increased”. Further, the “Formation of MTS in IPSCs” value in assay [2] is “induce formation of MTS”. Moreover, the “Inhibition of PI3K downstream targets PRAS40 (T246) and pS6 (S235/236) (in words)” value in assay [3] is recorded as “bona fide inhibitors of the PI3K/AKT axis”. The IC50 in assay [4] was 2.6 nM. Further, the “Inhibition of any kinase of the 24 kinase panel (in words)” value in assay [6] is “negligible inhibition of any kinase tested”. Besides, the “p-AKT S473 inhibition (in words)” value in assay [7] was “strongly inhibited”. Moreover, the inhibition at 10 µM in assay [7] (read-out: Decrease of p-AKT S473 inhibition after 24 h as compared to 1-h treatment) worked out at 35%; in assay [7] (setting [8]), 90%; in assay [7] (setting [9]), 93%; in assay [7] (setting [10]), 78%; in assay [7] (setting [11]), 66%; in assay [7] (setting [12]) it was 59%.
